Patent US8680159B2, “Bradykinin 1 receptor modulating compounds” (Gruenenthal GmbH, priority 2010, dated 2014)
Read-outs that look alike come from different tables or passages of the source.

What was measured:
[1] = target: T1, B1R receptor of the rat (CHO K1 cells stably transfected with the B1R gene of the rat) (Rattus norvegicus, UniProt P97583); experiment: Functional study on the bradykinin receptor 1 (B1R), Ca2+ fluorescence (Fluo-4) FLIPR/Novostar assay, rB1R cells; type: cell-based; settings: for inhibition at 10 µM: CHO-K1, 10 μM
T1 construct: expressed in transfected cells; host or cells: CHO K1 cells (Chinese hamster ovary), stably transfected
T1 sequence (P97583 1-337): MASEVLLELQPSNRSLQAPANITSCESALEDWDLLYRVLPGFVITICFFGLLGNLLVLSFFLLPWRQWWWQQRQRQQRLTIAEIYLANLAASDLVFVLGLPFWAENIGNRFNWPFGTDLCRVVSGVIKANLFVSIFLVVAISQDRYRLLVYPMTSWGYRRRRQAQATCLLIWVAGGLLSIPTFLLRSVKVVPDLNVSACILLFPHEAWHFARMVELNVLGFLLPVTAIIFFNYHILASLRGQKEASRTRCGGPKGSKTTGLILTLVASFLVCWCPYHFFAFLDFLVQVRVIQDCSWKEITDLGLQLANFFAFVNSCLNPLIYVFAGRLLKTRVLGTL
Summary of the method: (§1)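 Test compounds (10 μM) were added first and the Ca2+ rise was scored as % activation against Lys-Des-Arg9-bradykinin (≥50 nM, human) or Des-Arg9-bradykinin (≥1 μM, rat). After 6-20 min, the matching agonist was given at its EC80, and % inhibition relative to maximal achievable inhibition was calculated.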

[2] = target: T2, human B1R receptor (CHO K1 cells stably transfected with the human B1R gene) (Homo sapiens, UniProt P46663); experiment: Functional study on the bradykinin receptor 1 (B1R), Ca2+ fluorescence (Fluo-4) FLIPR/Novostar assay, hB1R cells; type: cell-based
T2 construct: expressed in transfected cells; host or cells: CHO K1 cells (Chinese hamster ovary), stably transfected
T2 sequence (P46663 1-353): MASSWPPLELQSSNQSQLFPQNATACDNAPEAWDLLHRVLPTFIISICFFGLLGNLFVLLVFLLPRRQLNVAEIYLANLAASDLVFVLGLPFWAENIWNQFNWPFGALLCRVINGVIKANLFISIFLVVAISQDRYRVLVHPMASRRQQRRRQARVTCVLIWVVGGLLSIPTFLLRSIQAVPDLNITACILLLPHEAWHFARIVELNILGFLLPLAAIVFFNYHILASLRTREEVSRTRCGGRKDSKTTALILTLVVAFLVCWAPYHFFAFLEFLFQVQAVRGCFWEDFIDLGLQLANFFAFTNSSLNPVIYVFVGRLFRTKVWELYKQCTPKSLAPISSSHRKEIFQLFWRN
Summary of the method: as §1

[3] = read-out: % Inhibition (r-B1R) at 10 μM
[4] = CHO-K1, read-out: % Inhibition (h-B1R) at 10 μM
[5] = read-out: % inhibition (rat B1R) at 10 μM
[6] = CHO-K1, read-out: % inhibition (human B1R) at 10 μM

SMILES	inhibition at 10 µM [1, 5]	inhibition at 10 µM [2, 6]	also measured
CN(C(=O)c1ccc2c(c1)CCC2NC(=O)c1cccc(Cl)c1Cl)C1CCN(c2ccncc2)CC1 (stereo not shown) [CC_H-67, 1-[(2,3-Dichloro-benzoyl)amino]-N-methyl-N-(1-pyridin-4-yl-piperidin-4-yl)-2,3-dihydro-1H-indene-5-carboxylic acid amide]	–	–	inhibition at 10 µM [1, 3]: 98%; inhibition at 10 µM [2, 4]: 100%
CN(C(=O)c1ccc2c(c1)CCC2NC(=O)c1ccccc1Cl)C1CCN(c2ccncc2)CC1 (stereo not shown) [CC_H-68, 1-[(2-Chloro-benzoyl)amino]-N-methyl-N-(1-pyridin-4-yl-piperidin-4-yl)-2,3-dihydro-1H-indene-5-carboxylic acid amide]	–	–	inhibition at 10 µM [1, 3]: 87%; inhibition at 10 µM [2, 4]: 96%
CN(C(=O)c1ccc2c(c1)C(N(C)C(=O)C1CCCCC1)CC2)C1CCN(c2ccncc2)CC1 (stereo not shown) [CC_H-69, 3-(Cyclohexanecarbonyl-methyl-amino)-N-methyl-N-(1-pyridin-4-yl-piperidin-4-yl)-2,3-dihydro-1H-indene-5-carboxylic acid amide]	–	–	% Inhibition (r-B1R) at 10 μM ([1]; 10 μM): 104%; inhibition at 10 µM [2, 4]: 99%
CN(C(=O)c1ccc2c(c1)C(N(C)C(=O)CCC1CCCC1)CC2)C1CCN(c2ccncc2)CC1 (stereo not shown) [CC_H-70, 3-(3-Cyclopentyl-propanoyl-methyl-amino)-N-methyl-N-(1-pyridin-4-yl-piperidin-4-yl)-2,3-dihydro-1H-indene-5-carboxylic acid amide]	–	–	inhibition at 10 µM [1, 3]: 103%; inhibition at 10 µM [2, 4]: 100%
O=C(NCCC1CCN(c2ccncc2)CC1)c1ccc2c(c1)C(NC(=O)c1ccccc1Cl)CC2 (stereo not shown) [Example H-01, 3-[(2-Chloro-benzoyl)amino]-N-[2-(1-pyridin-4-yl-piperidin-4-yl)-ethyl]-2,3-dihydro-1H-indene-5-carboxylic acid amide]	102%	100%	–
O=C(NCC1CCN(c2ccncc2)CC1)c1ccc2c(c1)[C@H](NC(=O)c1ccccc1Cl)CC2 [Example H-03, (3R)-3-[(2-Chloro-benzoyl)amino]-N-[(1-pyridin-4-yl-piperidin-4-yl)-methyl]-2,3-dihydro-1H-indene-5-carboxylic acid amide]	108%	15%	–
O=C(NC1CCN(c2ccc(C(F)(F)F)cn2)C1)c1ccc2c(c1)[C@H](NC(=O)c1ccccc1Cl)CC2 (stereo partly drawn) [Example H-04, (3R)-3-[(2-Chloro-benzoyl)amino]-N-[1-[5-(trifluoromethyl)-pyridin-2-yl]-pyrrolidin-3-yl]-2,3-dihydro-1H-indene-5-carboxylic acid amide]	47%	21%	–
CN(C(=O)c1ccc2c(c1)[C@H](NC(=O)c1ccccc1Cl)CC2)C1CCN(c2ccncc2)CC1 [Example H-06, (3R)-3-[(2-Chloro-benzoyl)amino]-N-methyl-N-(1-pyridin-4-yl-piperidin-4-yl)-2,3-dihydro-1H-indene-5-carboxylic acid amide]	102%	100%	–
O=C(NC1CCN(c2ccncc2)CC1)c1ccc2c(c1)[C@H](NC(=O)c1ccccc1Cl)CC2 [Example H-07, (3R)-3-[(2-Chloro-benzoyl)amino]-N-(1-pyridin-4-yl-piperidin-4-yl)-2,3-dihydro-1H-indene-5-carboxylic acid amide]	96%	43%	–
O=C(N[C@H]1CCN(C2CCN(C3CC3)CC2)C1)c1ccc2c(c1)[C@H](NC(=O)c1ccccc1Cl)CC2 [Example H-09, (3R)-3-[(2-Chloro-benzoyl)amino]-N-[(3S)-1-(1-cyclopropyl-piperidin-4-yl)-pyrrolidin-3-yl]-2,3-dihydro-1H-indene-5-carboxylic acid amide]	83%	38%	–
O=C(NCC1CCCN(c2ccncc2)C1)c1ccc2c(c1)[C@H](NC(=O)c1ccccc1Cl)CC2 (stereo partly drawn) [Example H-10, (3R)-3-[(2-Chloro-benzoyl)amino]-N-[(1-pyridin-4-yl-piperidin-3-yl)-methyl]-2,3-dihydro-1H-indene-5-carboxylic acid amide]	97%	18%	–
CN1CCN(C2CCC(NC(=O)c3ccc4c(c3)[C@H](NC(=O)c3ccccc3Cl)CC4)C(C)(C)C2)CC1 (stereo partly drawn) [Example H-14, (3R)-3-[(2-Chloro-benzoyl)amino]-N-[2,2-dimethyl-4-(4-methyl-piperazin-l-yl)-cyclohexyl]-2,3-dihydro-1H-indene-5-carboxylic acid amide]	–	–	% inhibition (rat B1R) at 10 μM ([1]; 10 μM): 76%; % inhibition (human B1R) at 10 μM [2]: 64%

Second part, led by results:

inhibition at 10 µM [1, 5]	inhibition at 10 µM [2, 6]	SMILES	also measured
49%	99%	CN(C(=O)c1ccc2c(c1)CC[C@H]2N1Cc2cccc(Cl)c2C1=O)C1CCN(c2ccncc2)CC1 [Example H-11, (1R)-1-(4-Chloro-3-oxo-1,2-dihydro-isoindol-2-yl)-N-methyl-N-(1-pyridin-4-yl-piperidin-4-yl)-2,3-dihydro-1H-indene-5-carboxylic acid amide]	–
100%	100%	CN(C(=O)c1ccc2c(c1)[C@H](N1Cc3cccc(Cl)c3C1=O)CC2)C1CCN(c2ccncc2)CC1 [Example H-12, (3R)-3-(4-Chloro-3-oxo-1,2-dihydro-isoindol-2-yl)-N-methyl-N-(1-pyridin-4-yl-piperidin-4-yl)-2,3-dihydro-1H-indene-5-carboxylic acid amide]	–
99%	100%	O=C(NCCC1CCN(c2ccncc2)CC1)c1ccc2c(c1)[C@H](NC(=O)c1ccccc1Cl)CC2 [Example H-15, (3R)-3-[(2-Chloro-benzoyl)amino]-N-[2-(1-pyridin-4-yl-piperidin-4-yl)-ethyl]-2,3-dihydro-1H-indene-5-carboxylic acid amide]	–
92%	100%	CN(C(=O)c1ccc2c(c1)CC[C@H]2NS(=O)(=O)c1ccccc1Cl)C1CCN(c2ccncc2)CC1 [Example H-16, (1R)-1-[[(2-Chlorophenyl)sulfonyl]amino]-N-methyl-N-(1-pyridin-4-yl-piperidin-4-yl)-2,3-dihydro-1H-indene-5-carboxylic acid amide]	–
77%	100%	CN(C(=O)c1ccc2c(c1)CC[C@H]2NC(=O)c1ccccc1Cl)C1CCN(c2ccncc2)CC1 [Example H-17, (1R)-1-[(2-Chloro-benzoyl)amino]-N-methyl-N-(1-pyridin-4-yl-piperidin-4-yl)-2,3-dihydro-1H-indene-5-carboxylic acid amide]	–
102%	100%	CN(C(=O)c1ccc2c(c1)[C@H](NC(=O)C1CCC1)CC2)C1CCN(c2ccncc2)CC1 [Example H-18, (3R)-3-(Cyclobutanecarbonylamino)-N-methyl-N-(1-pyridin-4-yl-piperidin-4-yl)-2,3-dihydro-1H-indene-5-carboxylic acid amide]	–
103%	98%	CN(C(=O)c1ccc2c(c1)[C@H](NC(=O)C(C)(C)C)CC2)C1CCN(c2ccncc2)CC1 [Example H-19, (3R)-3-(2,2-Dimethyl-propanoylamino)-N-methyl-N-(1-pyridin-4-yl-piperidin-4-yl)-2,3-dihydro-1H-indene-5-carboxylic acid amide]	–
103%	100%	CN(C(=O)c1ccc2c(c1)[C@H](NC(=O)c1ccccc1Cl)CCO2)C1CCN(c2ccncc2)CC1 [Example H-20, (4R)-4-[(2-Chloro-benzoyl)amino]-N-methyl-N-(1-pyridin-4-yl-piperidin-4-yl)-3,4-dihydro-2H-chromene-6-carboxylic acid amide]	–
105%	99%	CN(C(=O)c1ccc2c(c1)[C@@H](NC(=O)c1ccccc1Cl)CC2)C1CCN(c2ccncc2)CC1 [Example H-21, (3S)-3-[(2-Chloro-benzoyl)amino]-N-methyl-N-(1-pyridin-4-yl-piperidin-4-yl)-2,3-dihydro-1H-indene-5-carboxylic acid amide]	–
87%	100%	CN(C(=O)c1ccc2c(c1)[C@H](NC(=O)c1cnn3cccnc13)CC2)C1CCN(c2ccncc2)CC1 [Example H-22, N-[(1R)-6-[Methyl-(1-pyridin-4-yl-piperidin-4-yl)-carbamoyl]-2,3-dihydro-1H-indene-1-yl]-pyrazolo[1,5-a]pyrimidine-3-carboxylic acid amide]	–
93%	97%	CN(C(=O)c1ccc2c(c1)[C@H](NC(=O)c1ccccc1Cl)CC2)C1CCN(c2ccccn2)CC1 [Example H-23, (3R)-3-[(2-Chloro-benzoyl)amino]-N-methyl-N-(1-pyridin-2-yl-piperidin-4-yl)-2,3-dihydro-1H-indene-5-carboxylic acid amide]	–
